Measured values as given in patent publication US8778643B2, “Methods for increasing lipid levels and producing triacylglycerols in algae” (priority 2012, dated 2014).
Like-named read-outs stand apart in the source and are kept apart here.

Columns and labels:
[1] = test system: Phaeodactylum tricornutum; test: Microplate assay: growth (absorbance 680 nm) and intracellular lipids (Nile Red fluorescence); format: cell-based; settings: for effect on lipid production / lipid levels: microplate assay, multiple concentrations; for % Lipid increase based on Nile red fluorescence intensity: t=day 0; for % Increase based on Nile Red Fluorescence Intensity: added t=day 0; for Nile Red Fluorescence % Increase: initial screening, p<0.05
Nannochloris sp. = test: as above; format: cell-based; settings: for effect on lipid production / lipid levels: microplate assay, multiple concentrations
Nannochloropsis oculata [2] = settings: for effect on lipid production / lipid levels: microplate assay, multiple concentrations; for Nile Red Fluorescence % Increase / % Lipid increase based on Nile red fluorescence intensity / % Increase based on Nile Red Fluorescence Intensity: N. oculata; for Nile Red Fluorescence % Increase: compounds tested at 200 nM, initial screening, p<0.05; for % Lipid increase based on Nile red fluorescence intensity: t=day 0; for % Increase based on Nile Red Fluorescence Intensity: added t=day 0
Nannochloropsis salina = settings: for % Inc: increase of lipid production; for effect on lipid production / lipid levels: microplate assay, multiple concentrations; for % Lipid increase based on Nile red fluorescence intensity: DMSO, t=day 0; for % Increase based on Nile Red Fluorescence Intensity: added t=day 0
Nannochloropsis oculata [3] = test: Lipid composition of batch culture extracts (fatty acid saturation / PUFA by 1H NMR, MALDI-TOF, GC/MS); format: cell-based
Description: The nonpolar algal extracts were harvested from 500 mL cultures when indicated on growth curves, a minimum of 3 days into stationary phase. […] Cells were crushed and nonpolar lipids were extracted by sonication (Fisher Scientific Model 120 Sonic Dismembrator, ThermoFisher, San Jose) for 1 minute in chloroform, followed by chloroform-methanol extractions, washed with PBS butter, and dried under vacuum.^55-60 The crude non-polar algae extracts were then analyzed by ^1H Nuclear Magnetic Resonance (^1H NMR) for verification of TAG presence and examination of the purity of the extract (determination of level of chlorophyll). The extracts were then divided for analysis; one part for transesterification, one part to save as crude extract, and one part for SPE separation and MALDI-TOF analysis of TAGs.
Triacylglycerols can be isolated by solid-phase extraction (SPE) with 500 mg silica SPE cartridges (Silicycle, Quebec). The nonpolar extract is dissolved in 300 μL hexanes, and loaded on the SPE cartridge primed with hexanes. A mixture of 80:20:1 hexanes/diethyl ether/acetic acid was used as mobile phase to elute the TAGs.^61 SPE removes any chlorophyll in this process. Residual polar fraction containing polar lipids and chlorophyll was obtained by elution with acetone. All extracts and TAG fractions were dried under vacuum and stored under argon in amber vials at −20° C. before spectroscopic analysis. After SPE, the purified TAG fraction was reanalyzed with ^1H NMR spectroscopy for TAG characterization.
The TOF was in Reflectron mode with laser intensity from 5500-6500 Volts. Each acquisition consisted of 2500 shots with a focus mass of 900 Da, and a scan range of m/z 400-1100. Multiple acquisition scans were performed at different laser intensities to determine optimal conditions. Samples for the MALDI-TOF were diluted to 5 mg/mL in hexane, and spotted in the fast-evaporation method in a 1:2 ratio with DHB (2,5-dihydroxybenzoic acid) as the matrix. Re-spotting with methanol allowed for the matrix and sample to mix without hexane interactions, and allowed for better crystal formation. All samples on MALDI plate were allowed to dry before MS analysis. Data was normalized to base peak in all cases.
After the initial weight was recorded, the nonpolar extract set aside for transesterification was dissolved in 3.0 mL of 0.6 M sulfuric acid in methanol and stirred vigorously at 60° C. for 45 minutes.
Initial GC/MS temperature was 50° C. and end was 200° C. over at a one hour period for optimal FAME peak separation.
Peak assignment of fatty acids and their derivatives are based on NMR spectroscopic studies of previously reported algal lipid extracts^9 and comparison to standards such as olive oil (ACROS) and fatty acid mixtures.
We developed a quick and robust method to screen if the screened compound effect fatty acid saturation levels using ^1H NMR spectroscopy. The amount of saturated fatty acids (SFA), monounsaturated fatty acids (MUFAs), and polyunsaturated fatty acids (PUFAs) was determined using peak area ratios.
Calculated based on ^1H NMR integral ratios for the proton signals for the methyl group of PUFA components vs. the methyl groups of monounsaturated and saturated components.

[4] = 200 nM, initial microplate screen, relative to control
[5] = 20 μM, initial microplate screen, relative to control
[6] = 10 μM, dose-response microplate screen
[7] = 40 μM, dose-response microplate screen
[8] = 40 μM, initial microplate screen, relative to control

Oc1cc(O)c2c(c1)O[C@H](c1ccc(O)c(O)c1)[C@H](O)C2 [(−)-epicatechin, (−)-Epicatechin]
effect on lipid production / lipid levels [1]: lipid production increased
effect on lipid production / lipid levels (Nannochloris sp.): lipid production increased
effect on lipid production / lipid levels (Nannochloropsis oculata [2]): lipid production increased
% Inc (Nannochloropsis salina; N. salina, best conc. 2.4 nM): 147.90%
effect on lipid production / lipid levels (Nannochloropsis salina): lipid production increased

Oc1cc(O)c2c(c1)O[C@H](c1cc(O)c(O)c(O)c1)[C@H](O)C2 [(−)-epigallocatechin, (2R,3R)-2-(3,4,5-trihydroxyphenyl)-3,4-dihydro-2H-chromene-3,5,7-triol]
effect on lipid production / lipid levels [1]: reduction in lipids
effect on lipid production / lipid levels (Nannochloris sp.): reduction in lipids
effect on lipid production / lipid levels (Nannochloropsis oculata [2]): reduction in lipids
% Inc (Nannochloropsis salina; N. salina, best conc. 39 nM): 216.15%
effect on lipid production / lipid levels (Nannochloropsis salina): reduction in lipids

N#CC(C#N)=Cc1cc(O)c(O)c(O)c1 [AG82]
Nile Red Fluorescence % Increase (Nannochloris sp.; Nannochloris sp., compounds tested at 20 μM, initial screening, p<0.05): 54.2%
Nile Red Fluorescence % Increase (Nannochloropsis oculata [2]): 144.5%

COc1cc(C[C@H]2C(=O)OC[C@@H]2Cc2ccc(OC)c(OC)c2)ccc1O [Arctigenin, (3R,4R)-4-[(3,4-dimethoxyphenyl)methyl]-3-[(4-hydroxy-3-methoxyphenyl)methyl]-2-tetrahydrofuranone]
% Lipid increase based on Nile red fluorescence intensity ([1]; P. tricornutum, 41.2 nM, DMSO): 61%
% Increase based on Nile Red Fluorescence Intensity ([1]; P. tricornutum, 41.2 nM, DMSO delivery): 61%
Absorbance (percent increase) (Nannochloris sp.; [4]): −3.4%
Nile Red percent increase (Nannochloris sp.; [4]): 66.0%
Absorbance (percent increase) (Nannochloris sp.; [5]): −5.4%
Nile Red percent increase (Nannochloris sp.; [5]): 79.0%
Nile Red Fluorescence % Increase (Nannochloropsis oculata [2]): 152.2%
% Lipid increase based on Nile red fluorescence intensity (Nannochloropsis salina; N. salina, 370.4 nM): 64%
% Increase based on Nile Red Fluorescence Intensity (Nannochloropsis salina; N. salina, 13 nM, DMSO delivery): 59%
% Increase based on Nile Red Fluorescence Intensity (Nannochloropsis salina; N. salina, 370.4 nM, DMSO delivery): 64%

Nc1cc2ncnc(Nc3cccc(Br)c3)c2cc1N [BPDQ, 4-[(3-bromophenyl)amino]-6,7-diamino-quinazoline]
% Lipid increase based on Nile red fluorescence intensity ([1]; P. tricornutum, 400 fM, (water)): 63%
% Increase based on Nile Red Fluorescence Intensity ([1]; P. tricornutum, 400 fM, dissolved in water): 63%
Absorbance (percent increase) (Nannochloris sp.; [4]): −6.5%
Nile Red percent increase (Nannochloris sp.; [4]): 75.8%
Absorbance (percent increase) (Nannochloropsis salina; [4]): −6.7%
Nile Red percent increase (Nannochloropsis salina; [4]): 54.9%
% Lipid increase based on Nile red fluorescence intensity (Nannochloropsis salina; N. salina, concentration 6.0 (unit not given)): 130%
% Increase based on Nile Red Fluorescence Intensity (Nannochloropsis salina; N. salina, 6.0 nM, DMSO delivery): 130%
% Increase based on Nile Red Fluorescence Intensity (Nannochloropsis salina; N. salina, 55 nM, DMSO delivery): 86%

O=c1cc(-c2ccccc2)oc2cc(O)c(O)c(O)c12 [Baicalein, 5,6,7-Trihydroxy-2-phenyl-chromen-4-one]
Nile Red percent increase ([1]; 0.0252 nM, dose-response microplate screen): 105%
% increase (lipid production) ([1]; 0.0252-55.2 nM): 5-94%
% increase (lipid production) (Nannochloropsis oculata [2]; 0.0252 nM): 25%
% Lipid increase based on Nile red fluorescence intensity (Nannochloropsis oculata [2]; 25.2 pM, DMSO): 52%
% Lipid increase based on Nile red fluorescence intensity (Nannochloropsis oculata [2]; 40 μM, (water)): 76%
% Increase based on Nile Red Fluorescence Intensity (Nannochloropsis oculata [2]; 25.2 pM, DMSO delivery): 52%
% Increase based on Nile Red Fluorescence Intensity (Nannochloropsis oculata [2]; 40 μM, dissolved in water): 76%
% increase (lipid production) (Nannochloropsis salina; 0.0252-55.2 nM, DMSO delivery): 3-28%
% increase (lipid production) (Nannochloropsis salina; 0.0252-165.6 nM (H2O)): 6-30 (H2O) %
Nile Red Fluorescence % Increase (Nannochloropsis salina; N. salina, compounds tested at 20 μM, initial screening, p<0.05): 37.3%

O=C(O)O [Bicarbonate]
MUFAs (%) (Nannochloropsis oculata [3]): 13%
PUFAs (%) (Nannochloropsis oculata [3]): 87%
SFAs (%) (Nannochloropsis oculata [3]): 0%
n3 PUFAs (%) (Nannochloropsis oculata [3]): 20%

NS(=O)(=O)c1ccc(N/N=C2\C(=O)Nc3ccc(Br)cc32)cc1 [CDK2 I2]
Absorbance (percent increase) [1, 4]: −7.9%
Nile Red percent increase [1, 4]: 50.3%
Nile Red percent increase ([1]; 2.5 μM, dose-response microplate screen): 160%
Nile Red percent increase [1, 6]: 140%
Nile Red percent increase [1, 7]: 380%
Absorbance (percent increase) [1, 8]: −14.6%
Nile Red percent increase [1, 8]: 150.6%
% Lipid increase based on Nile red fluorescence intensity ([1]; P. tricornutum, 40 μM, DMSO): 347%
Nile Red Fluorescence % Increase ([1]; P. tricornutum, compounds tested at 200 nM): 50.3%
Nile Red Fluorescence % Increase ([1]; P. tricornutum, compounds tested at 40 μM): 150.6%
% Increase based on Nile Red Fluorescence Intensity ([1]; P. tricornutum, 10 μM, DMSO delivery): 86%
% Increase based on Nile Red Fluorescence Intensity ([1]; P. tricornutum, 40 μM, DMSO delivery): 347%
% Inc ([1]; increase of lipid production, P. tricornutum, best conc. 2.5 μM): 163.88%
Nile Red percent increase (Nannochloris sp.; 40 nM-40 μM, dose-response microplate screen): 110-210%
Absorbance (percent increase) (Nannochloris sp.; [4]): −14.0%
Nile Red percent increase (Nannochloris sp.; [4]): 103.2%
Nile Red percent increase (Nannochloropsis salina; [6]): 121%
Nile Red percent increase (Nannochloropsis salina; [7]): 271%

O=C(O)/C=C/c1ccc(O)c(O)c1 [Caffeic acid]
% increase (lipid production) ([1]; 6-165 nM): 13-205%
% Lipid increase based on Nile red fluorescence intensity ([1]; P. tricornutum, 4 μM, (water)): 94%
% Increase based on Nile Red Fluorescence Intensity ([1]; P. tricornutum, 4 μM, dissolved in water): 94%
effect on lipid production / lipid levels [1]: minimal effect on lipid production
% increase (lipid production) (Nannochloropsis oculata [2]; 0.681 nM): 5%
% increase (lipid production) (Nannochloropsis salina; 0.0252 nM-165.6 nM, DMSO delivery): 1-40%
% increase (lipid production) (Nannochloropsis salina; 0.0252-0.681 nM (H2O)): 62-110 (H2O) %
Nile Red percent increase (Nannochloropsis salina; 0.076-681 nM (H2O), dose-response microplate screen): 96-117%
increase in lipid production (Nannochloropsis salina; diluted in water, microplate): more than 100%
optimal effective concentration (lipid production) (Nannochloropsis salina; lipoxygenase inhibitor microplate screen): 0.22 to 0.68 nM
lipid increase (Nannochloropsis salina; with DMSO, microplate): < 20%

COc1cc(/C=C/C(=O)CC(=O)/C=C/c2ccc(O)c(OC)c2)ccc1O [Curcumin, (1E,6E)-1,7-bis (4-hydroxy-3-methoxyphenyl)-1,6-heptadiene-3,5-dione]
% increase (lipid production) ([1]; 6-494 nM): 7-30%
% increase (lipid production) (Nannochloropsis oculata [2]; 0.0252-0.0757 nM): 4-10%
% Lipid increase based on Nile red fluorescence intensity (Nannochloropsis oculata [2]; 75.7 pM, DMSO): 49%
% Increase based on Nile Red Fluorescence Intensity (Nannochloropsis oculata [2]; 75.7 pM, DMSO delivery): 49%
% increase (lipid production) (Nannochloropsis salina; 0.0252 nM-0.227 nM (H2O)): 5-9 (H2O) %
% increase (lipid production) (Nannochloropsis salina; 18 nM-13 μM, DMSO delivery): 18-69%
